Measurements taken from PubChem BioAssay (NCI).
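The compound was tested at five concentrations on cells cultured in 96-well plates, with a 48-hour exposure period. GI50 is the concentration that inhibits growth by half. TGI marks complete inhibition of growth.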 Where a SMILES comes first, the peptide text is derived from it. The star is where a group is joined. Cbz = O=C(OCc1ccccc1)*; Bn = c1ccc(C*)cc1

Experiments:
Assay in all cases: growth of human tumour cells (NCI), 48 h
CAKI-1 renal = tested on: CAKI-1 renal
HL-60(TB) leukemia = tested on: HL-60(TB) leukemia
HOP-18 NSCLC = tested on: HOP-18 NSCLC
HT29 colon = tested on: HT29 colon
BT-549 breast = tested on: BT-549 breast
DU-145 prostate = tested on: DU-145 prostate
HS 578T breast = tested on: HS 578T breast
MDA-MB-231 breast = tested on: MDA-MB-231 breast
NCI/ADR-RES ovarian = tested on: NCI/ADR-RES ovarian
PC-3 prostate = tested on: PC-3 prostate
KM20L2 colon = tested on: KM20L2 colon
M19-MEL melanoma = tested on: M19-MEL melanoma

| Compound | TGI (CAKI-1 renal) [µM] | TGI (HL-60(TB) leukemia) [µM] | TGI (HOP-18 NSCLC) [µM] | TGI (HT29 colon) [µM] | TGI (BT-549 breast) [µM] | TGI (DU-145 prostate) [µM] | TGI (HS 578T breast) [µM] | TGI (MDA-MB-231 breast) [µM] | TGI (NCI/ADR-RES ovarian) [µM] | TGI (PC-3 prostate) [µM] | TGI (KM20L2 colon) [µM] | TGI (M19-MEL melanoma) [µM] | other results |
| --- | --- | --- | --- | --- | --- | --- | --- | --- | --- | --- | --- | --- | --- |
| CC1C[C@]2(C[C@@H](C)C(=O)O2)OC2CC3(C)C4CCC5C(C)(C)OC(=O)CC[C@@]56C[C@@]46CC[C@]3(C)C12 (some centres not stated) | > 100 | > 100 | > 100 | > 100 |  |  |  |  |  |  |  |  |  |
| C1CSCCSCSCCS1 | > 100 |  |  | > 100 | > 100 | > 100 | > 100 | > 100 | > 100 | > 100 |  |  |  |
| CS(=O)(=O)c1ccc2nc(-c3ccc(O)cc3)sc2c1 | 31.4 | 63.9 |  | 26 | 30.5 | 29.6 |  | 42.5 | 36.2 | 32.1 |  |  |  |
| C[n+]1c2ccccc2c(CNCC(=O)O)c2ccccc21 | 1.84 |  | 22.6 | 12.1 |  |  |  |  |  |  | 2.44 | 16.5 |  |
| COC(=O)C(Cc1ccc(O)cc1)NC(=O)C(COCc1ccccc1)NC(=O)OCc1ccccc1 (configuration not stated) (Cbz-Ser(Bn)-Tyr-OMe; configuration not given here) | 36.4 | > 100 |  | 28.6 | > 100 | 31.8 | 53 | 33.1 | 38.8 | 33.3 |  |  |  |
| COc1ccc(-c2oc3cc(OC(C)=O)cc(OC(C)=O)c3c(=O)c2OC)cc1 | 34.9 | 33.9 |  | 36.3 |  | 45.2 |  | 63.7 | 36 | 59 |  |  |  |
| CCCCSCC(NC(=O)/C=C/c1c(C)[nH]c(=O)[nH]c1=O)C(=O)OC (configuration not stated) | 155 | 206 | 330 | 357 |  |  |  |  | > 450 |  | 355 | 191 |  |
| O=C1c2cccc(O)c2C(=O)c2c(O)cccc21 | > 100 |  |  | > 100 |  |  |  |  |  |  | > 100 | 24.3 |  |
| C[P+](c1ccccc1)(c1ccc(Cl)cc1)c1ccc(Cl)cc1 |  |  |  | 24.1 | 68.3 | 94.6 | 78.2 | 82 | > 100 | 70.6 |  |  |  |
| CN(C)CCOc1cc2c(c3ccccc13)-c1ccccc1C2O (configuration not stated) | 26.7 | 26.6 | 29.5 | 27.8 |  |  |  |  | 19.5 |  | 29.9 | 30.9 |  |
| NC(CCP(=O)(O)O)C(=O)O (configuration not stated) | > 100 | > 100 |  | > 100 | > 100 |  | > 100 | > 100 | > 100 | > 100 |  |  |  |
| N=C(N)c1ccc(-c2ccc(-c3ccc4ccccc4c3)s2)s1 | 11.6 | 5.11 |  |  | 46.8 | 3.44 | 4.71 | 3.73 |  | 4.87 |  |  | GI50 (BT-549 breast): 17.6 µM; GI50 (CAKI-1 renal): 3.11 µM; GI50 (DU-145 prostate): 1.83 µM; GI50 (HL-60(TB) leukemia): 1.81 µM; GI50 (HS 578T breast): 2.07 µM; GI50 (MDA-MB-231 breast): 1.85 µM; GI50 (PC-3 prostate): 2.19 µM |
| COc1ccc(N2C(=O)/C(=C\c3ccccc3)SC2c2cc(OC)c(OC)c(OC)c2)cc1 (configuration not stated) | > 100 |  |  | > 100 | > 100 |  | > 100 | > 100 | > 100 | > 100 |  |  |  |
| NC(=O)c1ccc([N+](=O)[O-])cc1 | > 100 |  |  | > 100 |  |  |  |  |  |  | > 100 | > 100 |  |
| c1ccc(-c2n(Cc3ccc4ccccc4c3)c3ccccc3[n+]2Cc2ccc3ccccc3c2)cc1 |  |  |  |  |  | 1.64 |  | 1.3 | 5.93 | 1.13 |  |  | GI50 (DU-145 prostate): 0.441 µM; GI50 (MDA-MB-231 breast): 0.289 µM; GI50 (NCI/ADR-RES ovarian): 2.21 µM; GI50 (PC-3 prostate): 0.27 µM |
| O=C(Nc1ccc(Cl)cc1)c1cc([N+](=O)[O-])ccc1O | 24.4 | 8.62 | 7.16 | 29.1 |  |  |  |  |  |  | > 50.9 | 23.5 |  |
| C=CCOCCC(CC=C)C(=O)CC(=O)OC (configuration not stated) |  | > 100 | > 100 | > 100 |  |  |  |  |  |  | > 100 |  |  |
